Data reported in patent publication US10584117B2, “1,3,4-oxadiazole amide derivative compound as histone deacetylase 6 inhibitor, and pharmaceutical composition containing same” (Chong Kun Dang Pharmaceutical Corp., priority 2015, dated 2020).

Molecular target: T1, human recombinant HDAC6 (Homo sapiens, UniProt Q9UBN7)
T1 construct: purchased Calbiochem 382180
T1 sequence (Q9UBN7 1-1215): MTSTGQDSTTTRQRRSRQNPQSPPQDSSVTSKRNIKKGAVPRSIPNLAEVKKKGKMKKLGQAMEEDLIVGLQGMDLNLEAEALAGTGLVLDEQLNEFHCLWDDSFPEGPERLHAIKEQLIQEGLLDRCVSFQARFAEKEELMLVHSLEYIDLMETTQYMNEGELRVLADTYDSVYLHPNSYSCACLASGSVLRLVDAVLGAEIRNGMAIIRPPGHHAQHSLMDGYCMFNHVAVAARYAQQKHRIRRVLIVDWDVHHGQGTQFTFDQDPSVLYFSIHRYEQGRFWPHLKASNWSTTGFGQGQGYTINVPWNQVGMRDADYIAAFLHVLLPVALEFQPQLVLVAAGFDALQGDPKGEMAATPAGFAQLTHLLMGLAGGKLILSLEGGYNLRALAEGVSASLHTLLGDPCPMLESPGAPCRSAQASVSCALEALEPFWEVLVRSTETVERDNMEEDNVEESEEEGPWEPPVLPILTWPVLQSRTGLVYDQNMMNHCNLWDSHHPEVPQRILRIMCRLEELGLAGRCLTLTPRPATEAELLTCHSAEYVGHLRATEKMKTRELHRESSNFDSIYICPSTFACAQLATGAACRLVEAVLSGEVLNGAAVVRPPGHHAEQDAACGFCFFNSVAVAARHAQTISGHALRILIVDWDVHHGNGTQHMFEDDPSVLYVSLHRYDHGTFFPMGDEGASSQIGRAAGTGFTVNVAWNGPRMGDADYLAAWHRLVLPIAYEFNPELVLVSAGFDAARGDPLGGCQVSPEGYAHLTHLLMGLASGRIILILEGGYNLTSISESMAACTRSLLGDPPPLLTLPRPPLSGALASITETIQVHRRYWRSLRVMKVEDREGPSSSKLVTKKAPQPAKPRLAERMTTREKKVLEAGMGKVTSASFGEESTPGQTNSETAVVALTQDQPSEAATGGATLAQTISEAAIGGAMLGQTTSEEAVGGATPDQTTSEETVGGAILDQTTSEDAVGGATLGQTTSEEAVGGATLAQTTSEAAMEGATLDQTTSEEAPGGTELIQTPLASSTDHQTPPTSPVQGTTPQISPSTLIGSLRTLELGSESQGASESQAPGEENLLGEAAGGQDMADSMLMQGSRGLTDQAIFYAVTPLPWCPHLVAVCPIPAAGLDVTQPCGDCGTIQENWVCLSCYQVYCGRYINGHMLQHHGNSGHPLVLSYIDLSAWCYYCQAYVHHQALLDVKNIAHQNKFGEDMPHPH
Assay: HDAC enzyme activity inhibition assay (HDAC6, fluorimetric kit)
Type: biochemical
Details: for HDAC6 selectivity (fold): HDAC6 versus HDAC1; for IC50: same protocol as the HDAC1 test
In short: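 Fluorimetric kit assay: human recombinant HDAC1 or HDAC6 (0.3 μg) reacted with 10 μM Fluor de Lys-SIRT1 substrate and 5-fold serially diluted compound for 60 minutes at 30° C, followed by 30 minutes of developer. Fluorescence was read at Ex 360/Em 460, and IC50 values were calculated from it.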

## CC(=O)N1CC(C(=O)N(Cc2ccc(-c3nnc(C(F)F)o3)cc2F)c2cccc(F)c2)C1 [Compound 11330, 1-acetyl-N-(4-(5-(difluoromethyl)-1,3,4-oxadiazol-2-yl)-2-fluorobenzyl)-N-(3-fluorophenyl)azetidine-3-carboxamide]
  HDAC6 selectivity (fold): 1961 fold
  IC50: 51 nM

## CCC(=O)N1CC(C(=O)N(Cc2ccc(-c3nnc(C(F)F)o3)cc2F)c2cccc(F)c2)C1 [Compound 11331, N-(4-(5-(difluoromethyl)-1,3,4-oxadiazol-2-yl)-2-fluorobenzyl)-N-(3-fluorophenyl)-1-propionylazetidine-3-carboxamide]
  HDAC6 selectivity (fold): 1786 fold
  IC50: 56 nM

## CC(C)C(=O)N1CC(C(=O)N(Cc2ccc(-c3nnc(C(F)F)o3)cc2F)c2cccc(F)c2)C1 [Compound 11332, N-(4-(5-(difluoromethyl)-1,3,4-oxadiazol-2-yl)-2-fluorobenzyl)-N-(3-fluorophenyl)-1-isobutyrylazetidine-3-carboxamide]
  HDAC6 selectivity (fold): 2326 fold
  IC50: 43 nM

## CS(=O)(=O)N1CC(C(=O)N(Cc2ccc(-c3nnc(C(F)F)o3)cc2F)c2cccc(F)c2)C1 [Compound 11333, N-(4-(5-(difluoromethyl)-1,3,4-oxadiazol-2-yl)-2-fluorobenzyl)-N-(3-fluorophenyl)-1-(methylsulfonyl)azetidine-3-carboxamide]
  HDAC6 selectivity (fold): 3448 fold
  IC50: 29 nM

## CCS(=O)(=O)N1CC(C(=O)N(Cc2ccc(-c3nnc(C(F)F)o3)cc2F)c2cccc(F)c2)C1 [Compound 11334, N-(4-(5-(difluoromethyl)-1,3,4-oxadiazol-2-yl)-2-fluorobenzyl)-1-(ethylsulfonyl)-N-(3-fluorophenyl)azetidine-3-carboxamide]
  HDAC6 selectivity (fold): 2632 fold
  IC50: 38 nM

## CC(=O)N(Cc1ccc(-c2nnc(C(F)F)o2)cc1F)c1cccc(F)c1 [Compound 11339, N-(4-(5-(difluoromethyl)-1,3,4-oxadiazol-2-yl)-2-fluorobenzyl)-N-(3-fluorophenyl)acetamide]
  HDAC6 selectivity (fold): 2041 fold
  IC50: 49 nM

## CC(=O)N(Cc1ccc(-c2nnc(C(F)(F)F)o2)cc1F)c1cccc(F)c1 [Compound 11340, N-(2-fluoro-4-(5-(trifluoromethyl)-1,3,4-oxadiazol-2-yl)benzyl)-N-(3-fluorophenyl)acetamide]
  HDAC6 selectivity (fold): 1087 fold
  IC50: 92 nM

## O=C(c1ccncc1)N(Cc1ccc(-c2nnc(C(F)F)o2)cn1)c1ccccc1 [Compound 11341, N-((5-(5-(difluoromethyl)-1,3,4-oxadiazol-2-yl)pyridin-2-yl)methyl)-N-phenylisonicotinamide]
  HDAC6 selectivity (fold): 2941 fold
  IC50: 34 nM

## CCC(=O)N(Cc1ccc(-c2nnc(C(F)F)o2)cc1F)c1cccc(F)c1 [Compound 11356, N-(4-(5-(difluoromethyl)-1,3,4-oxadiazol-2-yl)-2-fluorobenzyl)-N-(3-fluorophenyl)propionamide]
  HDAC6 selectivity (fold): 1961 fold
  IC50: 51 nM

## CCCC(=O)N(Cc1ccc(-c2nnc(C(F)F)o2)cc1F)c1cccc(F)c1 [Compound 11357, N-(4-(5-(difluoromethyl)-1,3,4-oxadiazol-2-yl)-2-fluorobenzyl)-N-(3-fluorophenyl)butyramide]
  HDAC6 selectivity (fold): 1149 fold
  IC50: 87 nM

## CC(C)CC(=O)N(Cc1ccc(-c2nnc(C(F)F)o2)cc1F)c1cccc(F)c1 [Compound 11358, N-(4-(5-(difluoromethyl)-1,3,4-oxadiazol-2-yl)-2-fluorobenzyl)-N-(3-fluorophenyl)-3-methylbutanamide]
  HDAC6 selectivity (fold): 847 fold
  IC50: 118 nM

## O=C(c1ccncc1)N(Cc1ccc(-c2nnc(C(F)(F)F)o2)cn1)c1cccc(F)c1 [Compound 11359, N-(3-fluorophenyl)-N-((5-(5-(trifluoromethyl)-1,3,4-oxadiazol-2-yl)pyridin-2-yl)methyl)isonicotinamide]
  HDAC6 selectivity (fold): 2941 fold
  IC50: 34 nM

## O=C(c1ccncc1)N(Cc1ccc(-c2nnc(C(F)F)o2)cn1)c1cccc(F)c1 [Compound 11360, N-((5-(5-(difluoromethyl)-1,3,4-oxadiazol-2-yl)pyridin-2-yl)methyl)-N-(3-fluorophenyl)isonicotinamide]
  HDAC6 selectivity (fold): 3125 fold
  IC50: 32 nM

## O=C(c1cccnc1)N(Cc1ccc(-c2nnc(C(F)F)o2)cn1)c1cccc(F)c1 [Compound 11376, N-((5-(5-(difluoromethyl)-1,3,4-oxadiazol-2-yl)pyridin-2-yl)methyl)-N-(3-fluorophenyl)nicotinamide]
  HDAC6 selectivity (fold): 4167 fold
  IC50: 24 nM

## CN1CCC(C(=O)N(Cc2ccc(-c3nnc(C(F)F)o3)cn2)c2ccccc2)CC1 [Compound 11414, N-((5-(5-(difluoromethyl)-1,3,4-oxadiazol-2-yl)pyridin-2-yl)methyl)-1-methyl-N-phenylpipetidine-4-carboxamide]
  HDAC6 selectivity (fold): 2500 fold
  IC50: 40 nM

## CN1CCC(C(=O)N(Cc2ccc(-c3nnc(C(F)F)o3)cn2)c2cccc(F)c2)CC1 [Compound 11418, N-((5-(5-(difluoromethyl)-1,3,4-oxadiazol-2-yl)pyridin-2-yl)methyl)-N-(3-fluorophenyl)-1-methylpiperidine-4-carboxamide]
  HDAC6 selectivity (fold): 2500 fold
  IC50: 40 nM

## CCN1CCC(C(=O)N(Cc2ccc(-c3nnc(C(F)F)o3)cn2)c2cccc(F)c2)CC1 [Compound 11419, N-((5-(5-(difluoromethyl)-1,3,4-oxadiazol-2-yl)pyridin-2-yl)methyl)-1-ethyl-N-(3-fluorophenyl)piperidine-4-carboxamide]
  HDAC6 selectivity (fold): 3333 fold
  IC50: 30 nM

## O=C(CN1CCCC1)N(Cc1ccc(-c2nnc(C(F)F)o2)cc1F)c1ccc(F)c(Cl)c1 [Compound 11534, N-(3-chloro-4-fluorophenyl)-N-(4-(5-(difluoromethyl)-1,3,4-oxadiazol-2-yl)-2-fluorobenzyl)-2-(pyrolidin-1-yl)acetamide]
  HDAC6 selectivity (fold): 1370 fold
  IC50: 73 nM

## O=C(CN1CCOCC1)N(Cc1ccc(-c2nnc(C(F)F)o2)cc1F)c1ccc(F)c(Cl)c1 [Compound 11535, N-(3-chloro-4-fluorophenyl)-N-(4-(5-(difluoromethyl)-1,3,4-oxadiazol-2-yl)-2-fluorobenzyl)-2-morpholinoacetamide]
  HDAC6 selectivity (fold): 1163 fold
  IC50: 86 nM

## O=C(CN1CC[C@H](O)C1)N(Cc1ccc(-c2nnc(C(F)F)o2)cc1F)c1ccc(F)c(Cl)c1 [Compound 11536, (S)-N-(3-chloro-4-fluorophenyl)-N-(4-(5-(difluoromethyl)-1,3,4-oxadiazol-2-yl)-2-fluorobenzyl)-2-(3-hydroxypyrrolidin-1-yl)acetamide]
  HDAC6 selectivity (fold): 1042 fold
  IC50: 96 nM

## O=C(CN1CCC[C@@H]1CO)N(Cc1ccc(-c2nnc(C(F)F)o2)cc1F)c1ccc(F)c(Cl)c1 [Compound 11537, (R)-N-(3-chloro-4-fluorophenyl)-N-(4-(5-(difluoromethyl)-1,3,4-oxadiazol-2-yl)-2-fluorobenzyl)-2-(2-(hydroxymethyl)pyrrolidin-1-yl)acetamide]
  HDAC6 selectivity (fold): 1429 fold
  IC50: 70 nM

## NC(=O)[C@@H]1CCCN1CC(=O)N(Cc1ccc(-c2nnc(C(F)F)o2)cc1F)c1ccc(F)c(Cl)c1 [Compound 11538, (S)-1-(2-((3-chloro-4-fluorophenyl) (4-(5-(difluoromethyl)-1,3,4-oxadiazol-2-yl)-2-fluorobenzyl)amino)-2-oxoethyl)pyrrolidine-2-carboxamide]
  HDAC6 selectivity (fold): 1587 fold
  IC50: 63 nM

## O=C(c1ccncc1)N(Cc1ccc(-c2nnc(C(F)(F)F)o2)cn1)c1ccccc1 [Compound 11584, N-phenyl-N-((5-(5-(trifluoromethyl)-1,3,4-oxadiazol-2-yl)pyridin-2-yl)methyl)isonicotinamide]
  HDAC6 selectivity (fold): 1695 fold
  IC50: 59 nM
